From ChEMBL document CHEMBL1201862, “PubChem BioAssay data set” (2004)
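Values below derive from 48-hour exposures of cells grown in 96-well plates, with endpoints linearly interpolated between the two concentrations bracketing the appropriate inhibition level. Here, GI50 denotes the concentration required for 50% inhibition of growth.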 Activity calls are given as the source filed them. Rule as the data show it: active = GI50 up to about 1.1 µM and inactive = higher. Where a SMILES comes first, the peptide text is derived from it. The star is where a group is joined. Cbz = O=C(OCc1ccccc1)*

Experiments:
Test in all cases: NCI tumour cell line growth inhibition, 48 h
MCF7 = test system: MCF7
HCT-15 = test system: HCT-15
T47D = test system: T47D
UACC-62 = test system: UACC-62
HL-60 = test system: HL-60
LOX IMVI = test system: LOX IMVI
SF-295 = test system: SF-295
PC-3 = test system: PC-3
BT-549 = test system: BT-549
SNB-75 = test system: SNB-75
MDA-N = test system: MDA-N
HCT-116 = test system: HCT-116
SNB-19 = test system: SNB-19
A549 = test system: A549
OVCAR-4 = test system: OVCAR-4
SN12C = test system: SN12C
NCI-H522 = test system: NCI-H522
A498 = test system: A498

| Structure (SMILES) | GI50 (MCF7) | GI50 (HCT-15) [µM] | GI50 (T47D) | GI50 (UACC-62) | GI50 (HL-60) | GI50 (LOX IMVI) | GI50 (SF-295) | GI50 (PC-3) | GI50 (BT-549) | GI50 (SNB-75) | GI50 (MDA-N) | GI50 (HCT-116) | GI50 (SNB-19) | GI50 (A549) | GI50 (OVCAR-4) | GI50 (SN12C) | GI50 (NCI-H522) | GI50 (A498) |
| --- | --- | --- | --- | --- | --- | --- | --- | --- | --- | --- | --- | --- | --- | --- | --- | --- | --- | --- |
| Clc1nc2c(C#Cc3ccccc3)ncnc2n1C1CCCCO1 (configuration not stated) | 8.32 µM (inactive) | 12.2 | 19.1 µM (inactive) | 13.4 µM (inactive) | 11.7 µM (inactive) | 12.6 µM (inactive) | 22.6 µM (inactive) | 12.2 µM (inactive) | 14.8 µM (inactive) | 18.1 µM (inactive) | 8.47 µM (inactive) | 10 µM (inactive) | 19.6 µM (inactive) | 16.5 µM (inactive) | 9.51 µM (inactive) | 10.4 µM (inactive) | 7.94 µM (inactive) | – |
| c1ccc2c(c1)CCc1c-2n(CCN2CCOCC2)c2ccccc12 | > 100 µM (inactive) | > 100 | > 100 µM (inactive) | > 100 µM (inactive) | – | > 100 µM (inactive) | 28.3 µM (inactive) | 19.1 µM (inactive) | > 100 µM (inactive) | – | > 100 µM (inactive) | > 100 µM (inactive) | > 100 µM (inactive) | > 100 µM (inactive) | > 100 µM (inactive) | > 100 µM (inactive) | 13.3 µM (inactive) | – |
| COC(OC)[C@@H]1OC[C@H](n2cnc3c(N)ncnc32)[C@H]1O | – | > 100 | > 100 µM (inactive) | > 100 µM (inactive) | – | > 100 µM (inactive) | > 100 µM (inactive) | > 100 µM (inactive) | > 100 µM (inactive) | > 100 µM (inactive) | > 100 µM (inactive) | > 100 µM (inactive) | 5.06 µM (inactive) | > 100 µM (inactive) | > 100 µM (inactive) | > 100 µM (inactive) | – | > 100 µM (inactive) |
| CNc1ncnc2c1cnn2Cc1cn(COCC(O)CO)nn1 (configuration not stated) | > 100 µM (inactive) | > 100 | > 100 µM (inactive) | > 100 µM (inactive) | > 100 µM (inactive) | > 100 µM (inactive) | > 100 µM (inactive) | > 100 µM (inactive) | > 100 µM (inactive) | – | > 100 µM (inactive) | > 100 µM (inactive) | > 100 µM (inactive) | > 100 µM (inactive) | > 100 µM (inactive) | > 100 µM (inactive) | – | > 100 µM (inactive) |
| O=C1CCCCC/C1=C\c1ccc([N+](=O)[O-])cc1 | 46.3 µM (inactive) | – | 31.5 µM (inactive) | 27.8 µM (inactive) | 28.9 µM (inactive) | – | 35.2 µM (inactive) | 38.6 µM (inactive) | 23 µM (inactive) | 29.7 µM (inactive) | 42.4 µM (inactive) | 22.7 µM (inactive) | 29.4 µM (inactive) | 36.5 µM (inactive) | – | 23.7 µM (inactive) | – | 35.2 µM (inactive) |
| CC(=O)O[C@@H]1C2=C(C)C=C(O2)[C@H]2O[C@]2(C)C[C@H]2C=C(C(=O)O2)[C@H](OC(C)=O)CC1[C@@]1(C)CO1 (some centres not stated) | 18 µM (inactive) | 22 | 18.8 µM (inactive) | 21.7 µM (inactive) | – | 18.4 µM (inactive) | 36.1 µM (inactive) | 32.4 µM (inactive) | 21.1 µM (inactive) | 42.5 µM (inactive) | 30.3 µM (inactive) | 15.1 µM (inactive) | > 100 µM (inactive) | 45.3 µM (inactive) | 27.7 µM (inactive) | 21.3 µM (inactive) | 3.23 µM (inactive) | > 100 µM (inactive) |
| C/C(=C\c1ccccc1)C(=O)NCc1ccc(C(=O)NCCc2c[nH]c3ccccc23)cc1 | 24.3 µM (inactive) | > 100 | > 100 µM (inactive) | 14 µM (inactive) | – | 61.1 µM (inactive) | > 100 µM (inactive) | 54.6 µM (inactive) | > 100 µM (inactive) | > 100 µM (inactive) | > 100 µM (inactive) | 58.3 µM (inactive) | > 100 µM (inactive) | > 100 µM (inactive) | 86.5 µM (inactive) | > 100 µM (inactive) | 69 µM (inactive) | 22 µM (inactive) |
| COC(=O)C(CC(C)C)NC(=O)C(CCCNC(=N)N)NC(=O)OCc1ccccc1 (stereo not drawn) (Cbz-Arg-Leu-OMe; configuration not given here) | > 100 µM (inactive) | > 100 | > 100 µM (inactive) | > 100 µM (inactive) | > 100 µM (inactive) | > 100 µM (inactive) | > 100 µM (inactive) | > 100 µM (inactive) | > 100 µM (inactive) | 72.6 µM (inactive) | > 100 µM (inactive) | > 100 µM (inactive) | > 100 µM (inactive) | > 100 µM (inactive) | > 100 µM (inactive) | > 100 µM (inactive) | 78.5 µM (inactive) | – |
| COc1cc(C=C2C(C)=NN(c3cccc(Cl)c3)C23SCC(=O)N3c2nc3ccccc3s2)ccc1O (configuration not stated) | 27.7 µM (inactive) | 30.4 | 33.3 µM (inactive) | 26.7 µM (inactive) | 3.72 µM (inactive) | 27.5 µM (inactive) | 33.6 µM (inactive) | 21.3 µM (inactive) | 25.9 µM (inactive) | – | 31.5 µM (inactive) | 24.7 µM (inactive) | 31.8 µM (inactive) | 29.6 µM (inactive) | 36.2 µM (inactive) | 30.1 µM (inactive) | 17.9 µM (inactive) | 26.4 µM (inactive) |
| CCCCn1cnc2c(SC)ncnc21 | > 100 µM (inactive) | > 100 | > 100 µM (inactive) | > 100 µM (inactive) | – | > 100 µM (inactive) | > 100 µM (inactive) | > 100 µM (inactive) | > 100 µM (inactive) | > 100 µM (inactive) | > 100 µM (inactive) | > 100 µM (inactive) | > 100 µM (inactive) | > 100 µM (inactive) | > 100 µM (inactive) | > 100 µM (inactive) | > 100 µM (inactive) | > 100 µM (inactive) |
| O=C1/C(=C2\Sc3c(ccc(Cl)c3Cl)C2=O)Sc2c1ccc(Cl)c2Cl | > 100 µM (inactive) | > 100 | > 100 µM (inactive) | > 100 µM (inactive) | – | – | 33.1 µM (inactive) | > 100 µM (inactive) | > 100 µM (inactive) | 20.3 µM (inactive) | > 100 µM (inactive) | > 100 µM (inactive) | > 100 µM (inactive) | > 100 µM (inactive) | > 100 µM (inactive) | > 100 µM (inactive) | > 100 µM (inactive) | > 100 µM (inactive) |
| O=C1C(Cl)C2(CC(/C=C/c3ccccc3Cl)=NN2c2cccc(S(=O)(=O)O)c2)N1c1nc2ccccc2s1 (configuration not stated) | 21.6 µM (inactive) | 15.8 | 11.3 µM (inactive) | 18.9 µM (inactive) | 6.67 µM (inactive) | 12.4 µM (inactive) | – | 66.4 µM (inactive) | > 100 µM (inactive) | 43.5 µM (inactive) | 46 µM (inactive) | 49.7 µM (inactive) | > 100 µM (inactive) | 72.1 µM (inactive) | 29.1 µM (inactive) | 93.5 µM (inactive) | 12.6 µM (inactive) | 66.7 µM (inactive) |
| CC1CN(c2cc3c(cc2F)c(=O)c(C(=O)O)cn3-c2ccc(N3CCN(C)CC3)cn2)CC(C)N1 (configuration not stated) | 98.9 µM (inactive) | > 100 | > 100 µM (inactive) | > 100 µM (inactive) | > 100 µM (inactive) | – | > 100 µM (inactive) | > 100 µM (inactive) | > 100 µM (inactive) | > 100 µM (inactive) | > 100 µM (inactive) | > 100 µM (inactive) | 70 µM (inactive) | > 100 µM (inactive) | > 100 µM (inactive) | > 100 µM (inactive) | – | > 100 µM (inactive) |
| CC(=O)NC(Cc1ccc(O)cc1)C(=O)O (configuration not stated) | > 100 µM (inactive) | > 100 | > 100 µM (inactive) | > 100 µM (inactive) | > 100 µM (inactive) | > 100 µM (inactive) | > 100 µM (inactive) | > 100 µM (inactive) | > 100 µM (inactive) | – | > 100 µM (inactive) | > 100 µM (inactive) | > 100 µM (inactive) | > 100 µM (inactive) | > 100 µM (inactive) | > 100 µM (inactive) | > 100 µM (inactive) | > 100 µM (inactive) |
| COc1ccc2[nH]c3c(c2c1)CCc1ccccc1-3 | 79.3 µM (inactive) | 70.5 | > 100 µM (inactive) | > 100 µM (inactive) | – | 78.9 µM (inactive) | 32.8 µM (inactive) | 52.8 µM (inactive) | > 100 µM (inactive) | 26.1 µM (inactive) | > 100 µM (inactive) | > 100 µM (inactive) | 81.3 µM (inactive) | > 100 µM (inactive) | 37.6 µM (inactive) | > 100 µM (inactive) | 26.7 µM (inactive) | – |
| O=[N+]([O-])/C(C(Cl)=C(Cl)Cl)=C(\Nc1ccccc1)n1nnc2ccccc21 | 55.8 µM (inactive) | > 100 | > 100 µM (inactive) | 40 µM (inactive) | – | 17.4 µM (inactive) | 44.7 µM (inactive) | 40.6 µM (inactive) | 27 µM (inactive) | > 100 µM (inactive) | 54.8 µM (inactive) | 65.3 µM (inactive) | 41.7 µM (inactive) | > 100 µM (inactive) | 17.6 µM (inactive) | > 100 µM (inactive) | – | > 100 µM (inactive) |
| Clc1ccccc1-c1nn2c(CCCCCCCCc3nnc4sc(-c5ccccc5Cl)nn34)nnc2s1 | 52.2 µM (inactive) | > 100 | > 100 µM (inactive) | > 100 µM (inactive) | – | 63.1 µM (inactive) | > 100 µM (inactive) | > 100 µM (inactive) | > 100 µM (inactive) | > 100 µM (inactive) | > 100 µM (inactive) | > 100 µM (inactive) | > 100 µM (inactive) | > 100 µM (inactive) | > 100 µM (inactive) | > 100 µM (inactive) | 77.3 µM (inactive) | > 100 µM (inactive) |
